Experimental data reported in the Kinase Knowledgebase extract (Sharma et al. 2016).

What was measured:
Assay in all cases: Enzyme Assay
PIK3CG (human) = PIK3CG (human) (UniProt P48736)
PIK3CB (Human) = PIK3CB (Human) (UniProt P42338)
PIK3CD (Human) = PIK3CD (Human) (UniProt O00329)
Chain of PIK3CD (Human) (O00329 whole entry, looked up): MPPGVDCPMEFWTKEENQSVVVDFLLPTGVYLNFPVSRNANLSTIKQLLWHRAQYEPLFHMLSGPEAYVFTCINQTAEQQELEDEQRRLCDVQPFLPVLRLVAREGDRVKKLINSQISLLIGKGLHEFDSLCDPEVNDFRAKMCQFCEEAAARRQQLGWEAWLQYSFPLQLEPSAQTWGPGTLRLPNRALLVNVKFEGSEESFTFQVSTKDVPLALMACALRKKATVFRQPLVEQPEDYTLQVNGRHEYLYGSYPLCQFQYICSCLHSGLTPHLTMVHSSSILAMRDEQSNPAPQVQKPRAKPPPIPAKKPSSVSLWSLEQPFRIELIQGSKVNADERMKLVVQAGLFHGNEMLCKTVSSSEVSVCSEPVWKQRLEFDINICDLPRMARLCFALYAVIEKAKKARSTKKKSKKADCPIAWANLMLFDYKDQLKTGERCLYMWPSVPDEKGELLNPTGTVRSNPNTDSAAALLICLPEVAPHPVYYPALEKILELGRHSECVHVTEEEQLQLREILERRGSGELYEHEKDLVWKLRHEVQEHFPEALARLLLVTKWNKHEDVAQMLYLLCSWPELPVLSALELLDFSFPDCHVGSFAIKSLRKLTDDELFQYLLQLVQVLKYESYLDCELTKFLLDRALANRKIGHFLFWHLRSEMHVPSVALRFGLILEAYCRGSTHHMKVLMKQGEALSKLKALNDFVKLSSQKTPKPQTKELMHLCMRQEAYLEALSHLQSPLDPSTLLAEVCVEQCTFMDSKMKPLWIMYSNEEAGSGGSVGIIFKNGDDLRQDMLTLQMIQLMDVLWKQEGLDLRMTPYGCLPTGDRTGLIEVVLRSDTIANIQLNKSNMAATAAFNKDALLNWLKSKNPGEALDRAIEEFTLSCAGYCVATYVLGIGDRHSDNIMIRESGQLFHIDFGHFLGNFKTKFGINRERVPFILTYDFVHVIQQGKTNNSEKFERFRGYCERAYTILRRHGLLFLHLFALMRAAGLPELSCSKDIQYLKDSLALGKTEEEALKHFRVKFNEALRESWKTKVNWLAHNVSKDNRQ

Chain of PIK3CG (human) (P48736 whole entry, looked up): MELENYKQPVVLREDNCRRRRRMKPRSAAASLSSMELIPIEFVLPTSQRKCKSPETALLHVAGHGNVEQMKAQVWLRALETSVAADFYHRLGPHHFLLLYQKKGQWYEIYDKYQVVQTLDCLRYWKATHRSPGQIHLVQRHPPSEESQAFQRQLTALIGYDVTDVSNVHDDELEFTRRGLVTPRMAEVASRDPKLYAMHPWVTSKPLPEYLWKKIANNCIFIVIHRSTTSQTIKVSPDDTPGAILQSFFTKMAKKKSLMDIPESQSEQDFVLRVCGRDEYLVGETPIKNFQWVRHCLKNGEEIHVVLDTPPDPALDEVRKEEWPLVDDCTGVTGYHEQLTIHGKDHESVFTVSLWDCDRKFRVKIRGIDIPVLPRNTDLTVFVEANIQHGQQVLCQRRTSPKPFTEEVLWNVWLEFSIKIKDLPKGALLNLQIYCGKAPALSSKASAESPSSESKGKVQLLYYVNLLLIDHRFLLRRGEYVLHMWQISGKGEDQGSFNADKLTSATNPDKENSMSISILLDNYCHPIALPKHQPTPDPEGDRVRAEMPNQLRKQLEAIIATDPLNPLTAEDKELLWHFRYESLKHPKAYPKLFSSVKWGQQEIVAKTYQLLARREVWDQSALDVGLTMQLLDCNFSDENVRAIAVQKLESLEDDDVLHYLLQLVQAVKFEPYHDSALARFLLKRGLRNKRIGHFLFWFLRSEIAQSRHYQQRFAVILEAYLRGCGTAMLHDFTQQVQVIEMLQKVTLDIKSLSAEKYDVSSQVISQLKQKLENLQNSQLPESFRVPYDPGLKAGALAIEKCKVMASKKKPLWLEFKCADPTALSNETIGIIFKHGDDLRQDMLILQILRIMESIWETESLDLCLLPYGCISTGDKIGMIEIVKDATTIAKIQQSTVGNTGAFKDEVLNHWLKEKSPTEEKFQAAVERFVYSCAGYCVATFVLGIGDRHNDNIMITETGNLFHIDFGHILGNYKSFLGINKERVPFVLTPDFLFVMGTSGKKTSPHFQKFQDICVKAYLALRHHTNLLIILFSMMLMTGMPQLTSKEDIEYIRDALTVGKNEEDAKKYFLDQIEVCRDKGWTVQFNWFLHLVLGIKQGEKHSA
Chain of PIK3CB (Human) (P42338 whole entry, looked up): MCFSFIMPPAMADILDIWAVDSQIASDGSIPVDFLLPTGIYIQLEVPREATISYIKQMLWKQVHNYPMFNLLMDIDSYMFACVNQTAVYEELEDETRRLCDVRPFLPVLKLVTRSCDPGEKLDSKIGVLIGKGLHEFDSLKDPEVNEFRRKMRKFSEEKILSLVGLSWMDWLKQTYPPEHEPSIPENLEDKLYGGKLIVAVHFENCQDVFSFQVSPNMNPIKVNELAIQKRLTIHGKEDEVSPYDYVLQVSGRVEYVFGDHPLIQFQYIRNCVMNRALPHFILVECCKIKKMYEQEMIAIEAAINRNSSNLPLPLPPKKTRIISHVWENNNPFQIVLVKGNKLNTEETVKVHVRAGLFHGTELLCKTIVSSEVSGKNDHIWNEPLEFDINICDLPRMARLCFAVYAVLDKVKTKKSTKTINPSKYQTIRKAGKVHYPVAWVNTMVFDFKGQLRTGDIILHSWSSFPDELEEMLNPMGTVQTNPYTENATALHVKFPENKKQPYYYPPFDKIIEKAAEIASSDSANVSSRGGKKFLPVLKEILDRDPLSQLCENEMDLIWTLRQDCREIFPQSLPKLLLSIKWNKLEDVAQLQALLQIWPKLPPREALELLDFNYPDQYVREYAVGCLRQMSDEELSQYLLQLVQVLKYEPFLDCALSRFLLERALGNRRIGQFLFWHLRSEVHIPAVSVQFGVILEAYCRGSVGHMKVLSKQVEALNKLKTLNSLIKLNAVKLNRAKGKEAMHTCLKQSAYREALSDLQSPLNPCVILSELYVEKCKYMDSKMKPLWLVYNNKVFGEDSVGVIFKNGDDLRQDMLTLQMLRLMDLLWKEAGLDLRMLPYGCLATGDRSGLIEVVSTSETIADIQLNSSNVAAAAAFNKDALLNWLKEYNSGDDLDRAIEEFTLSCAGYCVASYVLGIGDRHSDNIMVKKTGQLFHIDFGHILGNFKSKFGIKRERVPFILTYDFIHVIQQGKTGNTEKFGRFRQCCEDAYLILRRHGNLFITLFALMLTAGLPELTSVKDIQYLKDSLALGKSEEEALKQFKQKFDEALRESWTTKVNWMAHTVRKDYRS

| IC50 (PIK3CG (human)) [µM] | IC50 (PIK3CB (Human)) [µM] | IC50 (PIK3CD (Human)) [µM] | Structure (SMILES) |
| --- | --- | --- | --- |
| > 10 |  |  | Cc1c[nH]nc1-n1c([C@@H](NC2=NC(N)=NC3=NN=C(Br)C32)C2CC2)nc2cccc(Cl)c2c1=O (stereo partly drawn) |
|  | > 10 |  | C[C@H](Nc1nc(N)nc(C(F)F)c1Cl)c1nc2cc(F)cc(F)c2c(=O)n1-c1cc[nH]n1 |
|  |  | 0.003 | CC[C@H](Nc1ncnc2[nH]cc(F)c12)c1nc2c(Cl)ccc(Cl)c2c(=O)n1-c1cc[nH]n1 |
| > 10 |  |  | Nc1nc(N)c(Cl)c(N[C@H](c2nc3c(Cl)cc(F)cc3c(=O)n2-c2cc[nH]n2)C2CC2)n1 |
| 9.3 |  | 0.14 | C[C@H](Nc1nc(N)nc(N)c1C#N)c1nc2ccc(Cl)cc2c(=O)n1-c1cc[nH]n1 |
| > 10 | 0.004 | 0.009 | C[C@H](Nc1nc(N)nc(N)c1C#N)c1nc2c(C(F)F)cccc2c(=O)n1-c1cc[nH]n1 |
|  | > 10 |  | C[C@H](Nc1nc(N)nc(C(F)F)c1Cl)c1nc2c(F)c(F)ccc2c(=O)n1-c1cc[nH]n1 |
| > 10 |  |  | Nc1nc(N)c(Cl)c(N[C@H](c2nc3cccc(Cl)c3c(=O)n2-c2cc[nH]n2)C2CCC2)n1 |
| 10 |  |  | CC(C)[C@H](Nc1nc(N)nc(N)c1Cl)c1nc2cccc(Cl)c2c(=O)n1-c1cc[nH]n1 |
| > 10 |  |  | CC(C)Cc1cc(-n2c([C@H](C)Nc3ncnc(N)c3C#N)nc3cccc(Cl)c3c2=O)n[nH]1 |
